From patent US20150104519A1, “Pharmaceutical Compositions” (Alpharma Pharmaceuticals LLC, priority 2007, published 2015)
Structures can show the parent of a compound that is named as a salt.

Experiments:
[1] = in comparison to a 15 mg dose of hydrocodone
[2] = cited from earlier work
[3] = test system: morphine effects; details: three 100-mg doses of naltrexone; MS Contin; cited from earlier work
[4] = test system: mu over delta sites; details: cited from earlier work

Compound | Equianalgesic dose, Calculated Dose [1] [mg] | other results
COc1ccc2c3c1O[C@H]1[C@@H](O)C=C[C@H]4[C@@H](C2)N(C)CC[C@@]341 [Codeine] | 90.0 | 
COc1ccc2c3c1OC1C(=O)CC[C@H]4[C@@H](C2)N(C)CC[C@]314 (stereo partly drawn) [Hydrocodone, 4,5-epoxy-3-methoxy-17-methylmorphinan-6-one] | 15.0 | 
CN1CC[C@]23CCCC[C@H]2[C@H]1Cc1ccc(O)cc13 [Levorphanol] | 1.8 | 
CCC(=O)C(CC(C)N(C)C)(c1ccccc1)c1ccccc1 (stereo not drawn) [Methadone] | 9.0 | 
COc1ccc2c3c1OC1C(=O)CC[C@@]4(O)[C@@H](C2)N(C)CC[C@]314 (stereo partly drawn) [Oxycodone, 4,5-epoxy-14-hydroxy-3-methoxy-17-methylmorphinan-6-one] | 13.5 | 
O=C1CC[C@@]2(O)[C@H]3Cc4ccc(O)c5c4[C@@]2(CCN3CC2CC2)[C@H]1O5 [hydrochloride salt of naltrexone, Naltrexone HCl] |  | soluble in water [2]: about 100 mg/cc
O=C1CC[C@@]2(O)[C@H]3Cc4ccc(O)c5c4[C@@]2(CCN3CC2CC2)[C@H]1O5 [naltrexone] |  | blockade of morphine effects [3]: blocked; blocking action, site preference [4]: strong preferential blocking action against mu over delta sites
Meperidine | 135.0 | 
